From ChEMBL document CHEMBL3991601, “The target landscape of clinical kinase drugs” (Science, 2017)
Active and inactive are the calls of the source.

What was measured:
[1] = target: Bone morphogenetic protein receptor type-1A (Homo sapiens, UniProt P36894)
[2] = target: T1, Probable ATP-dependent RNA helicase DDX6 (Homo sapiens, UniProt P26196)
T1 sequence (P26196 whole entry): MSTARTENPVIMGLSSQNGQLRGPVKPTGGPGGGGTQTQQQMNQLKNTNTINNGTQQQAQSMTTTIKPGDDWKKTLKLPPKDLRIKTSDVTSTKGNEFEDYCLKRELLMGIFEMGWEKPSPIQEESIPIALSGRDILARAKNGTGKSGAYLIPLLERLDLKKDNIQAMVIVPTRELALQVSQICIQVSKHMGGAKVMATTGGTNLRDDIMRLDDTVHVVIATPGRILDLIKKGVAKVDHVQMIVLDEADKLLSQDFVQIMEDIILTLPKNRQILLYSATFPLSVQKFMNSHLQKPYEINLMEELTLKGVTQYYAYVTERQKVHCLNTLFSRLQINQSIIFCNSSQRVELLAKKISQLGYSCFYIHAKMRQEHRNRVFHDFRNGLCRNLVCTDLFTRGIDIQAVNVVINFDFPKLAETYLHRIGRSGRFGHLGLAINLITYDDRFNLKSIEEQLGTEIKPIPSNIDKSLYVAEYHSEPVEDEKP

[3] = target: T2, Delta(24)-sterol reductase (Homo sapiens, UniProt Q15392)
T2 sequence (Q15392 whole entry): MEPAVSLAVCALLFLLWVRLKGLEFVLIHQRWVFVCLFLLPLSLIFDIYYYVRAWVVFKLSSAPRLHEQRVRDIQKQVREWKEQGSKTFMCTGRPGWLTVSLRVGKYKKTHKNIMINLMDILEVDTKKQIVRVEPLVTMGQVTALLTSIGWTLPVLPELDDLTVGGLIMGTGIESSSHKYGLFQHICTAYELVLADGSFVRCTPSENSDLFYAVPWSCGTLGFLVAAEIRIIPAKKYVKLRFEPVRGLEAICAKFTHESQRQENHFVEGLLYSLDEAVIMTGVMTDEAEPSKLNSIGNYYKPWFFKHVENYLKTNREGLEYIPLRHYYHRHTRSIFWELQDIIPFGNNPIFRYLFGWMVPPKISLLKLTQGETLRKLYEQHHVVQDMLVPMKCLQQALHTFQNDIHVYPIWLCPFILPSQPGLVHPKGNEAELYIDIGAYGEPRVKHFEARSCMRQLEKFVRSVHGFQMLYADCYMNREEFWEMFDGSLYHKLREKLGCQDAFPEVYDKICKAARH

[4] = target: Tyrosine-protein kinase JAK1 (Homo sapiens, UniProt P23458)
[5] = target: T3, DNA replication licensing factor MCM4 (Homo sapiens, UniProt P33991)
T3 sequence (P33991 whole entry): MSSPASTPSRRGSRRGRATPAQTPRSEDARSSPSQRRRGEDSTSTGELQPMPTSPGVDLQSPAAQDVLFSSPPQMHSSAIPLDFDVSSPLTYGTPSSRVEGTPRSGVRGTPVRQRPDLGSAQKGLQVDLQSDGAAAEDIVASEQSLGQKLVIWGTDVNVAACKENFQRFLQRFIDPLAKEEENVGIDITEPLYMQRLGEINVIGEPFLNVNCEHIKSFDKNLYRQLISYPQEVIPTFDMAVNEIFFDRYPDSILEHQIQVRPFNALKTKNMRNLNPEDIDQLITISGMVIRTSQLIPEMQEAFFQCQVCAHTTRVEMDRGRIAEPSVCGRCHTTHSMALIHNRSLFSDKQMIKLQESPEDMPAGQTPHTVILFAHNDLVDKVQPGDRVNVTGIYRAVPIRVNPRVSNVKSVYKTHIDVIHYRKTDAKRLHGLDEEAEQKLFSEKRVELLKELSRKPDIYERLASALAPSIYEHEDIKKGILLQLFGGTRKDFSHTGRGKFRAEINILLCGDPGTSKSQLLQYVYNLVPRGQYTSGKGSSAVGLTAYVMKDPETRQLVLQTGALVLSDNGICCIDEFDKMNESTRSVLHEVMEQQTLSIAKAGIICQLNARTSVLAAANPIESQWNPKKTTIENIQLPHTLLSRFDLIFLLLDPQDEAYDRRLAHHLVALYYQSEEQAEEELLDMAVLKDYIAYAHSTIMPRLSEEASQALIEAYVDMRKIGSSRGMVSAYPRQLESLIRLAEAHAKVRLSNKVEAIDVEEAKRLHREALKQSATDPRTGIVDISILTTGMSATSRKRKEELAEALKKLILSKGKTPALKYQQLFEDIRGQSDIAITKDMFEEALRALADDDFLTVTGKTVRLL

TGF-beta receptor type-1 = target: T4, TGF-beta receptor type-1 (Homo sapiens, UniProt P36897)
T4 sequence (P36897 whole entry): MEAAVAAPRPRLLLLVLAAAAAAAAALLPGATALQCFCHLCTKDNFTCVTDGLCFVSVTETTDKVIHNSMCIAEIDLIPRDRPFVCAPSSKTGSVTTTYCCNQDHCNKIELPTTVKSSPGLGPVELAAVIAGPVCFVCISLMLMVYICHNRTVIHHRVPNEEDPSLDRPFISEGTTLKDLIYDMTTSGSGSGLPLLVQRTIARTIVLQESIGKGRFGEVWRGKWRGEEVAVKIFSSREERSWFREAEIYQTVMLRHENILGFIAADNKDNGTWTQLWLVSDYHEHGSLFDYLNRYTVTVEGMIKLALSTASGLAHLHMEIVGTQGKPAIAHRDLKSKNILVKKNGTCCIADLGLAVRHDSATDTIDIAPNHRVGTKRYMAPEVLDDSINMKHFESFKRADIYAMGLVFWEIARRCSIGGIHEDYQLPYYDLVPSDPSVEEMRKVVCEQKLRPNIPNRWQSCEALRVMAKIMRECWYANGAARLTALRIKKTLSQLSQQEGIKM

Wee1-like protein kinase = Wee1-like protein kinase (Homo sapiens, UniProt P30291)
[6] = target: T5, Uncharacterized protein FLJ45252 (Homo sapiens, UniProt Q6ZSR9); settings: read-out: Kd apparent; k-562, colo 205, sk-n-be(2) and mv-4-11
T5 sequence (Q6ZSR9 whole entry): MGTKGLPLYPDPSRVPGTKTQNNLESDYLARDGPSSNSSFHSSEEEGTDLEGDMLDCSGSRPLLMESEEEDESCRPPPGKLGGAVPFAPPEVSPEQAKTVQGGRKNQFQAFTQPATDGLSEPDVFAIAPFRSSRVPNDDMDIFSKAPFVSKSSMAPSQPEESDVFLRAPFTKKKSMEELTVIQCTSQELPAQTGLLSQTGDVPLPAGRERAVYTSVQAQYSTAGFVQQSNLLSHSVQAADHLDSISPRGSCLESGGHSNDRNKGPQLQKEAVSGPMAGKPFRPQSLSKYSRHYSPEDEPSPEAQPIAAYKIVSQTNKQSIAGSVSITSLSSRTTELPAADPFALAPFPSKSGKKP
Further: in the data inactive means no Kd found up to 30 µM.

Sequence of Bone morphogenetic protein receptor type-1A (P36894 whole entry): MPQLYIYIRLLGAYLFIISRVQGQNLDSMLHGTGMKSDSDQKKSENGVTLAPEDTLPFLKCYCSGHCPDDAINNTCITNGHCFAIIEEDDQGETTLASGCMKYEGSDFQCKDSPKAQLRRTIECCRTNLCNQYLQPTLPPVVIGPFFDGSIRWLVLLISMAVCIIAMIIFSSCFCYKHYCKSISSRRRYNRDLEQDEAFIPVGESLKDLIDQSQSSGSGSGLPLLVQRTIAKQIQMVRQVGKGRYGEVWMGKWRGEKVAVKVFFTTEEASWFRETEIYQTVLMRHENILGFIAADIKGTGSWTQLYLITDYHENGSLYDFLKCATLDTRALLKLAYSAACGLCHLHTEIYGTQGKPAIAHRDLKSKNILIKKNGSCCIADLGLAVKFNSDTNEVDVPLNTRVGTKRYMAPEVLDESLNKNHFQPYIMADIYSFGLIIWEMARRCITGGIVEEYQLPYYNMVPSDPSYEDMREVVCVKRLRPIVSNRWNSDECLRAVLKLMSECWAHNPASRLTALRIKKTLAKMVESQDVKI
Sequence of Tyrosine-protein kinase JAK1 (P23458 whole entry): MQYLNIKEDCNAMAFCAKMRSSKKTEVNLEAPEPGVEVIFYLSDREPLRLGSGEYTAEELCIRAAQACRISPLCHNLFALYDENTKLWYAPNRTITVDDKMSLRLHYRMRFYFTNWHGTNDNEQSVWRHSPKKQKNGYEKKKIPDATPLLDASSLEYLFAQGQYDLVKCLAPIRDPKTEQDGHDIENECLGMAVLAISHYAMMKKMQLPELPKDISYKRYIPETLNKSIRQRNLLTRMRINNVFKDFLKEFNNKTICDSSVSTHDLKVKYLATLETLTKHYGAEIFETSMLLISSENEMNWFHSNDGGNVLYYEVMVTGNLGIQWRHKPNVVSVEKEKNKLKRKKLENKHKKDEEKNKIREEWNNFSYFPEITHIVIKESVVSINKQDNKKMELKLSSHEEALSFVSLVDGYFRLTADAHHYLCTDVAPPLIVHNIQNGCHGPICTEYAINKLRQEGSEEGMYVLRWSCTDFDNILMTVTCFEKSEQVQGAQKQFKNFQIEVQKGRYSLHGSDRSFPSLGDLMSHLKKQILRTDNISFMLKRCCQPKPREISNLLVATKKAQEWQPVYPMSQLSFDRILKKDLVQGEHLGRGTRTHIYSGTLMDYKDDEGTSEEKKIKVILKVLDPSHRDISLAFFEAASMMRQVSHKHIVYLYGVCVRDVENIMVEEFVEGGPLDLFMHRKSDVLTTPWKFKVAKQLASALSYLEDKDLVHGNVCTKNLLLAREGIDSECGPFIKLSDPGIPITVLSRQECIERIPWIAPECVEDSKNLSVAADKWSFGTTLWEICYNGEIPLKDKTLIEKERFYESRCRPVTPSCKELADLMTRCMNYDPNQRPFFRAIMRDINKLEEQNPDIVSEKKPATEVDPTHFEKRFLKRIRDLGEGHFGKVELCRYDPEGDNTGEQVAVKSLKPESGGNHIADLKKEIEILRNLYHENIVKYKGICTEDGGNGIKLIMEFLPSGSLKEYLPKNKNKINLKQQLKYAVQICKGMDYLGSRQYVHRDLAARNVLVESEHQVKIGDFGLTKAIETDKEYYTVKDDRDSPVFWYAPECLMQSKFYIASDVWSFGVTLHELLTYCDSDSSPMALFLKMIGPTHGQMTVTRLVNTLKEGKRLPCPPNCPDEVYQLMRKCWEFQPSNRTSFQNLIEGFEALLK
Sequence of Wee1-like protein kinase (P30291 whole entry): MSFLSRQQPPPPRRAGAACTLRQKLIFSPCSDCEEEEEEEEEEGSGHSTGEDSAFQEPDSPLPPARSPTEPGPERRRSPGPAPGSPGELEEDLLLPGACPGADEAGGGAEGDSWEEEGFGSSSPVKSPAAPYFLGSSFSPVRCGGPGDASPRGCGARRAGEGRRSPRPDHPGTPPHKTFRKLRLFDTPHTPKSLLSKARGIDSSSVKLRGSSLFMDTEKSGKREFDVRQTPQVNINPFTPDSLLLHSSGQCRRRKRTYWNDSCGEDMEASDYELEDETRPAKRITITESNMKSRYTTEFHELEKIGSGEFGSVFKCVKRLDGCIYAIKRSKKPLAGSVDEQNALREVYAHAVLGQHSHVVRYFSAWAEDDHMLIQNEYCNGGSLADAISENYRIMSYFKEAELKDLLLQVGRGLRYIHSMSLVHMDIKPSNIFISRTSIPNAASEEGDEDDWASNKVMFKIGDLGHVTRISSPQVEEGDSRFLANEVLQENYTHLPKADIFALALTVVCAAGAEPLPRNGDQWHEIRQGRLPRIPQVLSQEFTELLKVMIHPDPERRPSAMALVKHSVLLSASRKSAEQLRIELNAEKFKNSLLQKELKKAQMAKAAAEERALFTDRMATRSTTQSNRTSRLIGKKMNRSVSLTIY

Kd [1] | Kd [2] | Kd [3] | Kd [4] | Kd [5] | Kd (TGF-beta receptor type-1) | Kd (Wee1-like protein kinase) | Kd [6] | SMILES
> 30 µM (inactive) | > 30 µM (inactive) | > 30 µM (inactive) | > 30 µM (inactive) | > 30 µM (inactive) | > 30 µM (inactive) | > 30 µM (inactive) | 1.18 µM (active) | Cc1[nH]c(/C=C2\C(=O)Nc3ccccc32)c(C)c1CCC(=O)O [ORANTINIB]
> 30 µM (inactive) | > 30 µM (inactive) | > 30 µM (inactive) | > 30 µM (inactive) | > 30 µM (inactive) | > 30 µM (inactive) | 2.77 µM (active) | 2.72 µM (active) | Cc1nc(Nc2n[nH]c3c2CN(C(=O)N[C@H](CN(C)C)c2ccccc2)C3(C)C)c2sccc2n1 [PF-03758309]
> 30 µM (inactive) | > 30 µM (inactive) | > 30 µM (inactive) | > 30 µM (inactive) | > 30 µM (inactive) | > 30 µM (inactive) | > 30 µM (inactive) | > 30 µM (inactive) | Cc1cnc(NC(=O)Nc2cc(Br)c(C)cc2OC[C@@H]2CNCCO2)cn1 [RABUSERTIB]
> 30 µM (inactive) | > 30 µM (inactive) | > 30 µM (inactive) | > 30 µM (inactive) | > 30 µM (inactive) | > 30 µM (inactive) | > 30 µM (inactive) | > 30 µM (inactive) | CO[C@H]1C[C@@H]2CC[C@@H](C)[C@@](O)(O2)C(=O)C(=O)N2CCCC[C@H]2C(=O)O[C@H]([C@H](C)C[C@@H]2CC[C@@H](OP(C)(C)=O)[C@H](OC)C2)CC(=O)[C@H](C)/C=C(\C)[C@@H](O)[C@@H](OC)C(=O)[C@H](C)C[C@H](C)/C=C/C=C/C=C/1C [RIDAFOROLIMUS]
> 30 µM (inactive) | > 30 µM (inactive) | > 30 µM (inactive) | > 30 µM (inactive) | > 30 µM (inactive) | > 30 µM (inactive) | > 30 µM (inactive) | > 30 µM (inactive) | N#CC1(c2ccc(NC(=O)c3cccnc3NCc3ccncc3)cc2)CCCC1 [RIVOCERANIB]
> 30 µM (inactive) | > 30 µM (inactive) | > 30 µM (inactive) | > 30 µM (inactive) | > 30 µM (inactive) | > 30 µM (inactive) | > 30 µM (inactive) | 0.013 µM (active) | O=c1[nH]ccc2cc(OC3CCNCC3)ccc12 [SAR-407899 FREE BASE]
> 30 µM (inactive) | > 30 µM (inactive) | > 30 µM (inactive) | > 30 µM (inactive) | > 30 µM (inactive) | > 30 µM (inactive) | > 30 µM (inactive) | > 30 µM (inactive) | Cn1cc(-c2cnn3c(N)c(Br)c([C@@H]4CCCNC4)nc23)cn1 [SCH-900776]
> 30 µM (inactive) | > 30 µM (inactive) | > 30 µM (inactive) | > 30 µM (inactive) | > 30 µM (inactive) | > 30 µM (inactive) | > 30 µM (inactive) | > 30 µM (inactive) | CO[C@H]1C[C@@H]2CC[C@@H](C)[C@@](O)(O2)C(=O)C(=O)N2CCCC[C@H]2C(=O)O[C@H]([C@H](C)C[C@@H]2CC[C@@H](O)[C@H](OC)C2)CC(=O)[C@H](C)/C=C(\C)[C@@H](O)[C@@H](OC)C(=O)[C@H](C)C[C@H](C)/C=C/C=C/C=C/1C [SIROLIMUS]
> 30 µM (inactive) | > 30 µM (inactive) | > 30 µM (inactive) | > 30 µM (inactive) | > 30 µM (inactive) | > 30 µM (inactive) | > 30 µM (inactive) | > 30 µM (inactive) | CO[C@H]1C[C@@H]2CC[C@@H](C)[C@@](O)(O2)C(=O)C(=O)N2CCCC[C@H]2C(=O)O[C@H]([C@H](C)C[C@@H]2CC[C@@H](OC(=O)C(C)(CO)CO)[C@H](OC)C2)CC(=O)[C@H](C)/C=C(\C)[C@@H](O)[C@@H](OC)C(=O)[C@H](C)C[C@H](C)/C=C/C=C/C=C/1C [TEMSIROLIMUS]
> 30 µM (inactive) | > 30 µM (inactive) | > 30 µM (inactive) | > 30 µM (inactive) | > 30 µM (inactive) | 3.32 µM (active) | > 30 µM (inactive) | > 30 µM (inactive) | COc1cc2c(Nc3ccc(Cl)c(Cl)c3F)ncnc2cc1OC[C@@H]1C[C@@H]2CN(C)C[C@@H]2C1 [TESEVATINIB]
> 30 µM (inactive) | > 30 µM (inactive) | > 30 µM (inactive) | > 30 µM (inactive) | > 30 µM (inactive) | > 30 µM (inactive) | > 30 µM (inactive) | > 30 µM (inactive) | O=C(Cc1ccc(-c2ccc(OCCN3CCOCC3)cc2)cn1)NCc1ccccc1 [TIRBANIBULIN]
> 30 µM (inactive) | > 30 µM (inactive) | > 30 µM (inactive) | > 30 µM (inactive) | > 30 µM (inactive) | > 30 µM (inactive) | > 30 µM (inactive) | > 30 µM (inactive) | O=C1NC(=O)[C@@H](c2cn3c4c(cccc24)CCC3)[C@@H]1c1c[nH]c2ccccc12 [TIVANTINIB]

SMILES | Kd [1] | Kd [2] | Kd [3] | Kd [4] | Kd [5] | Kd (TGF-beta receptor type-1) | Kd (Wee1-like protein kinase) | Kd [6]
CCCCCCCCCCCCCCCCCCOP(=O)([O-])OC1CC[N+](C)(C)CC1 [PERIFOSINE] | > 30 µM (inactive) | > 30 µM (inactive) | > 30 µM (inactive) | > 30 µM (inactive) | > 30 µM (inactive) | > 30 µM (inactive) | > 30 µM (inactive) | > 30 µM (inactive)
CN1CCN(CCOc2cc(OC3CCOCC3)c3c(Nc4c(Cl)ccc5c4OCO5)ncnc3c2)CC1 [SARACATINIB] | 0.06 µM (active) | > 30 µM (inactive) | > 30 µM (inactive) | > 30 µM (inactive) | > 30 µM (inactive) | 0.197 µM (active) | > 30 µM (inactive) | > 30 µM (inactive)
